The target in experiment [1] is T1, H3 (Homo sapiens, UniProt Q9Y5N1).
T1 construct: purchased NIMH Psychoactive Drug Screening Program (PDSP)
The experiment can be described thus: PDSP primary binding H3. The settings on record: primary binding, 10,000 nM; last figure of the line = mean of the 4 before it; read-out: H3, PDSP raw data, mean. The method, then: (§1) To determine if any off-target receptor-binding effects are present, all the novel ligands were sent to the National Institute of Mental Health (NIMH), Psychoactive Drug Screening Program (PDSP). The ligands were screened over a panel of 47 receptors, ion channels, and transporters to determine any other possible interactions with […]. The hERG-binding was also determined. […] No binding of the test compounds to calcium channels was observed. […] It is necessary to screen the compounds for hERG-binding during the early process of drug discovery. The unintentional binding of many drugs to hERG can cause blockade of hERG K+ channels in the heart, which can cause many side effects including cardiac arrhythmias and sudden death. […] All of the α5 imidazodiazepines were tested for hERG-binding.
(§2) The NIMH PDSP assay protocol book [https://kidbdev.med.unc.edu/databases/PDSP%20Protocols%20II%202013-03-28.pdf accessed on 23 April 2023]. describes the protocols for primary and secondary radio-ligand binding assays. These assays were carried out in a final volume of 125 µL per well in the appropriate binding buffer.
(§3) The binding of a ligand to a receptor, ion channel, or transporter was determined in the […] of 10 µM of the appropriate reference compound. […] Plates were incubated in the dark for 90 min at rt, and the reactions were stopped by vacuum filtration onto 0.3% polyethyleneimine (PEI) soaked 96-well filter mats using a 96-well Filtermateharvester. This was followed by three washes with cold PBS buffer. Radioactivity was then counted on a Microbeta counter. Nonlinear regression was used to analyze the data with N = 6 replicates.

Experiment [2] concerns the target T2, Beta3 (Homo sapiens, UniProt P13945).
T2 construct: purchased NIMH Psychoactive Drug Screening Program (PDSP)
The experiment can be described thus: PDSP primary binding Beta3. The note with it: 1.5 h; primary binding, 10,000 nM; last figure of the line = mean of the 4 before it; read-out: Beta3, PDSP raw data, mean. The method, then: as §1, §2, §3

The target in experiment [3] is T3, A1 (Homo sapiens, UniProt P30542).
T3 construct: purchased NIMH Psychoactive Drug Screening Program (PDSP)
T3 sequence (P30542 1-326): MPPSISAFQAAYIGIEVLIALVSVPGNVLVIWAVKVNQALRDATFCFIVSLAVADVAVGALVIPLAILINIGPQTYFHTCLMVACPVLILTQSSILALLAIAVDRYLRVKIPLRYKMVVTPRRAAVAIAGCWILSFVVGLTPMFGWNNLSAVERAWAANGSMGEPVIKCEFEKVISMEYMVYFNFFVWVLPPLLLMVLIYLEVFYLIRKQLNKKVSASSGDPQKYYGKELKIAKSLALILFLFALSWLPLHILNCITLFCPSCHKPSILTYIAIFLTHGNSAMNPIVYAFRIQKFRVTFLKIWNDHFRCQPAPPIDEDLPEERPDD
The experiment can be described thus: PDSP primary binding A1. The note with it: 1.5 h; primary binding, 10,000 nM; last figure of the line = mean of the 4 before it; read-out: A1, PDSP raw data, mean. How it is done:
as §1, §2, §3

Experiment [4] concerns the target kappa opioid receptors (KOR) (Homo sapiens, UniProt P41145). The experiment can be described thus: PDSP radioligand binding at KOR. The settings on record: 1.5 h; primary binding, 10,000 nM; last figure of the line = mean of the 4 before it; read-out: KOR, PDSP raw data, mean.
In experiment [5] the target is T4, Alpha2B (Homo sapiens, UniProt P18089).
T4 construct: purchased NIMH Psychoactive Drug Screening Program (PDSP)
T4 sequence (P18089 1-450): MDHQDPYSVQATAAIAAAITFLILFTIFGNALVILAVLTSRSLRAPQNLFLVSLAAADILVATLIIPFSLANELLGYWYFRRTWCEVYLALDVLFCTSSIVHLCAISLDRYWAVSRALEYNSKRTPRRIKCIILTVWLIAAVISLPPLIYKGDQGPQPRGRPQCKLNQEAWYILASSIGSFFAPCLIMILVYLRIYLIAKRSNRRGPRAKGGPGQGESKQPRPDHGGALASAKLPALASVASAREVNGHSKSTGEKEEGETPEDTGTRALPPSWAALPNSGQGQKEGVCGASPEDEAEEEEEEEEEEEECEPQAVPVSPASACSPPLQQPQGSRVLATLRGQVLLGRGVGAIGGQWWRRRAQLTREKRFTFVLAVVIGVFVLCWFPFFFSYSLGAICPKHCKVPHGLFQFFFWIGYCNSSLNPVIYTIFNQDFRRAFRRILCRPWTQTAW
Description: PDSP primary binding Alpha2B. The note with it: 1.5 h; primary binding, 10,000 nM; last figure of the line = mean of the 4 before it; read-out: Alpha2B, PDSP raw data, mean. How it is done: as §1, §2, §3

For experiment [6], the target named is T5, Beta2 (Homo sapiens, UniProt P07550).
T5 construct: purchased NIMH Psychoactive Drug Screening Program (PDSP)
T5 sequence (P07550 whole entry): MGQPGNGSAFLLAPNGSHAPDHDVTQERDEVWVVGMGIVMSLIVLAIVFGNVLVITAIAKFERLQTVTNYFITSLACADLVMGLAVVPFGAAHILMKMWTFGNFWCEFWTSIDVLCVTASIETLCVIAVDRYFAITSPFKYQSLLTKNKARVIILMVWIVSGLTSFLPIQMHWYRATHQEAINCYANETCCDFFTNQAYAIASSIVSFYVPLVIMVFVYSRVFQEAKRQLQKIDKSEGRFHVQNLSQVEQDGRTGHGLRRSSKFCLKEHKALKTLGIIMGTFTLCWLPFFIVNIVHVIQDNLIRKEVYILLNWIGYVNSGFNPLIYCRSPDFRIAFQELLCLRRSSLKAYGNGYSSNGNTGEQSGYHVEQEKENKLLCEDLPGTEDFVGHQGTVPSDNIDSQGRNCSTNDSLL
Description: PDSP primary binding Beta2. The settings on record: 1.5 h; primary binding, 10,000 nM; last figure of the line = mean of the 4 before it; read-out: Beta2, PDSP raw data, mean. How it is done:
as §1, §2, §3

The target in experiment [7] is T6, 5-HT4 (Homo sapiens, UniProt Q13639).
T6 construct: purchased NIMH Psychoactive Drug Screening Program (PDSP)
T6 sequence (Q13639 whole entry): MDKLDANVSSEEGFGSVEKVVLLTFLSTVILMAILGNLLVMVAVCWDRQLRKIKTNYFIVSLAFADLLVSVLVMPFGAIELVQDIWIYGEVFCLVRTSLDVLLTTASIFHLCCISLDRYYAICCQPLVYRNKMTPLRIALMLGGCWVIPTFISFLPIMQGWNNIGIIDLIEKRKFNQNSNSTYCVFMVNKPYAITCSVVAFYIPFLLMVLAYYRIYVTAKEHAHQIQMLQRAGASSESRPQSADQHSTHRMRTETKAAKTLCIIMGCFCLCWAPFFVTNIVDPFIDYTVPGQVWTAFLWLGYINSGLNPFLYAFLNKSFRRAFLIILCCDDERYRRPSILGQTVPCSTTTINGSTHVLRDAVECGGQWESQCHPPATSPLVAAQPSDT
The experiment can be described thus: PDSP primary binding 5-HT4. The settings on record: 1.5 h; primary binding, 10,000 nM; last figure of the line = mean of the 4 before it; read-out: 5-HT4, PDSP raw data, mean. The method, then:
as §1, §2, §3

For experiment [8], the system named is NR2B. Description: PDSP primary binding NR2B. The note with it: primary binding, 10,000 nM; last figure of the line = mean of the 4 before it. The method, then:
as §1, §2, §3

For experiment [9], the target named is T7, 5-HT5A (Homo sapiens, UniProt P47898).
T7 construct: purchased NIMH Psychoactive Drug Screening Program (PDSP)
T7 sequence (P47898 whole entry): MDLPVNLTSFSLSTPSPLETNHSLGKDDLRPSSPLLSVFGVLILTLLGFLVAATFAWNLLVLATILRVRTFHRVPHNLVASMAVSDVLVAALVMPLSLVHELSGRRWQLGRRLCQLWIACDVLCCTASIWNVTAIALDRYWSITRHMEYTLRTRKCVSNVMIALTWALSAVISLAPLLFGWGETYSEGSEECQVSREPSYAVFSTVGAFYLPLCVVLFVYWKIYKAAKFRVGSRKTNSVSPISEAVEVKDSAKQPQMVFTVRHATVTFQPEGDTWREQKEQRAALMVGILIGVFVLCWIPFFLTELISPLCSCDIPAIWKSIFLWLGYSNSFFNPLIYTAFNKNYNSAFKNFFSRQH
Description: PDSP primary binding 5-HT5A. The note with it: 1.5 h; primary binding, 10,000 nM; last figure of the line = mean of the 4 before it; read-out: 5-HT5A, PDSP raw data, mean. How it is done:
as §1, §2, §3

For experiment [10], the target named is T8, Beta1 (Homo sapiens, UniProt P08588).
T8 construct: purchased NIMH Psychoactive Drug Screening Program (PDSP)
T8 sequence (P08588 whole entry): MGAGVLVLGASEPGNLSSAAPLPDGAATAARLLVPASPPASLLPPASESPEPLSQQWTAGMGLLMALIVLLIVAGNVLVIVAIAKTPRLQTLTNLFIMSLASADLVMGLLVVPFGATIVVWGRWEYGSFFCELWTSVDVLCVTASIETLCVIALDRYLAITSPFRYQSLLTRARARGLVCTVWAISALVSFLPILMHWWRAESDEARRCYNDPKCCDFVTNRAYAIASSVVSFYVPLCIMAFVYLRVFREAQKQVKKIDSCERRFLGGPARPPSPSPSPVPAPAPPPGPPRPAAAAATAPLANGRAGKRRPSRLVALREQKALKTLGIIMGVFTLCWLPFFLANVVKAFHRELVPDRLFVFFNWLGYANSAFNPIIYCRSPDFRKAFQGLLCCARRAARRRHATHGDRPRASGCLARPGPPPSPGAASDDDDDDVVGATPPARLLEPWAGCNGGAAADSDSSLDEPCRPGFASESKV
Description: PDSP primary binding Beta1. The note with it: 1.5 h; primary binding, 10,000 nM; last figure of the line = mean of the 4 before it; read-out: Beta1, PDSP raw data, mean. How it is done:
as §1, §2, §3

The target of experiment [11] is T9, D1 (Homo sapiens, UniProt P21728).
T9 construct: purchased NIMH Psychoactive Drug Screening Program (PDSP)
T9 sequence (P21728 whole entry): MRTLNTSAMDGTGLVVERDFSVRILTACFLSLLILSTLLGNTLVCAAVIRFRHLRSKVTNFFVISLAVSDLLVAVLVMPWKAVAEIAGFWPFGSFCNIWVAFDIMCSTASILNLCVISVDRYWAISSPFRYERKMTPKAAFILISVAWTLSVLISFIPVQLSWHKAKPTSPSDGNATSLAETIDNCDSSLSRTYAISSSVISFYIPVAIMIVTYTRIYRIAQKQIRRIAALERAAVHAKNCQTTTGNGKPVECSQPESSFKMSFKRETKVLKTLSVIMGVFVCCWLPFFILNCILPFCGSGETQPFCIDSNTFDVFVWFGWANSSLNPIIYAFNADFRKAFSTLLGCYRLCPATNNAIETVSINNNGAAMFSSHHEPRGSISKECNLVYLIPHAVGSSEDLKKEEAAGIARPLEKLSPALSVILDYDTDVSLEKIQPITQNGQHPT
The experiment can be described thus: PDSP primary binding D1. The note with it: 1.5 h; primary binding, 10,000 nM; last figure of the line = mean of the 4 before it; read-out: D1, PDSP raw data, mean. How it is done: as §1, §2, §3

Structures are written as SMILES.

T1 sequence (Q9Y5N1 whole entry): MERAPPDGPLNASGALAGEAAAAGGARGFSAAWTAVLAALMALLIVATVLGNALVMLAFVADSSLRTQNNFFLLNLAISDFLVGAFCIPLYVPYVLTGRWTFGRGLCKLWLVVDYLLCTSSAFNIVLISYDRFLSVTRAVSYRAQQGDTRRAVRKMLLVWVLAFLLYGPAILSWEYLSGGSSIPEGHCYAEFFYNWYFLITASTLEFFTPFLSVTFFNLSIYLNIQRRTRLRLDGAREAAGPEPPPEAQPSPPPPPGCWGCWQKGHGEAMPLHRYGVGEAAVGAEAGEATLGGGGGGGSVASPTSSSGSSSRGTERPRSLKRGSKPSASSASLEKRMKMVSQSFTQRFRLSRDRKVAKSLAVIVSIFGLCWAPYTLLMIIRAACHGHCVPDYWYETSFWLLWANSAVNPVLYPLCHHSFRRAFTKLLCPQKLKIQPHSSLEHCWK
T2 sequence (P13945 whole entry): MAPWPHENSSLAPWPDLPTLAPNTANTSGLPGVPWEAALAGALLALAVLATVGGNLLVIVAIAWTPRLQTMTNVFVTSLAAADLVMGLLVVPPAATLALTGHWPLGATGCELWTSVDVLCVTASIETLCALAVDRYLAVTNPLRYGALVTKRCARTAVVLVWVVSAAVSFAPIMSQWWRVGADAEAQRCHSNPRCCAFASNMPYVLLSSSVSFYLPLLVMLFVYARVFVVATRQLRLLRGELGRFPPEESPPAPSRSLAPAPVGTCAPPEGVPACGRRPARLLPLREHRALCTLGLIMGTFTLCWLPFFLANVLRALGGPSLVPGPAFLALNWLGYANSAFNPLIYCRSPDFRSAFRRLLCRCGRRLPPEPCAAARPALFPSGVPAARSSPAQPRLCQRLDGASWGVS
Chain of kappa opioid receptors (KOR) (P41145 whole entry): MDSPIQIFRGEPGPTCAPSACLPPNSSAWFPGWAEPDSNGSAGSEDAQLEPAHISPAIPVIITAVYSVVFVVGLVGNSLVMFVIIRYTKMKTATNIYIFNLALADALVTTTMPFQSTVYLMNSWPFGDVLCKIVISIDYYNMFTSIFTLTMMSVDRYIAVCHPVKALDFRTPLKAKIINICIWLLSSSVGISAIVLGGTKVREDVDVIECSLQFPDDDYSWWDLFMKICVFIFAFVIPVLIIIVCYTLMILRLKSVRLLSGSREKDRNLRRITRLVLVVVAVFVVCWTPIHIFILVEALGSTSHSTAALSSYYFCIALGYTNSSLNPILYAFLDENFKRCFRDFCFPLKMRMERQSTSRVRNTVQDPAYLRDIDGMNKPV

As for `CCc1noc(-c2ncn3c2[C@@H](C)N=C(c2ccccc2F)c2cc(C4CC4)ccc2-3)n1` [Compound 46, (R)-5-(8-Cyclopropyl-6-(2′-fluorophenyl)-4-methyl-4H-benzo[f]imidazo[1,5-a][1,4]diazepin-3-yl)-3-ethyl-1,2,4-oxadiazole], the inhibition at 10 µM in [1] was -6.39%; in experiment [2] it was 31.1%; in experiment [3] it was 30.9%; in experiment [4], 91.3%; in experiment [5], 44.2%; in [6], -6.06%. The inhibition at 10 µM in experiment [7] is 3.05%; in experiment [9], 23.6%; in experiment [10], -26.4%; in [11], 74.6%. In addition, in experiment [8], the “NR2B, PDSP raw data, mean” value came out at 32.88%.

For the origin of these results see paper PMC10303271, “Synthesis and Receptor Binding Studies of α5 GABAAR Selective Novel Imidazodiazepines Targeted for Psychiatric and Cognitive Disorders” (Molecules, 2023).
